According to PubChem BioAssay (NCI):
Several values for one entry are separate records, joined by “and”; a condition that tells them apart may be missing. Identical values can stand only once.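 Compound exposure: 48 hours, 5 concentrations, 96-well plates. GI50 marks 50% less growth. TGI marks complete inhibition of growth.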

How the values were obtained:
Assay in all cases: growth of human tumour cells (NCI), 48 h
OVCAR-4 ovarian = tested on: OVCAR-4 ovarian
HT29 colon = tested on: HT29 colon
OVCAR-8 ovarian = tested on: OVCAR-8 ovarian
HCT-15 colon = tested on: HCT-15 colon
MALME-3M melanoma = tested on: MALME-3M melanoma
HOP-92 NSCLC = tested on: HOP-92 NSCLC
CAKI-1 renal = tested on: CAKI-1 renal
SW-620 colon = tested on: SW-620 colon
NCI-H522 lung = tested on: NCI-H522 lung
HL-60(TB) leukemia = tested on: HL-60(TB) leukemia
SK-OV-3 ovarian = tested on: SK-OV-3 ovarian
COLO 205 colon = tested on: COLO 205 colon
SR leukemia = tested on: SR leukemia
OVCAR-5 ovarian = tested on: OVCAR-5 ovarian
MOLT-4 leukemia = tested on: MOLT-4 leukemia
EKVX NSCLC = tested on: EKVX NSCLC
HCC-2998 colon = tested on: HCC-2998 colon
HCT-116 colon = tested on: HCT-116 colon
K-562 leukemia = tested on: K-562 leukemia
SF-268 CNS = tested on: SF-268 CNS
OVCAR-3 ovarian = tested on: OVCAR-3 ovarian
DU-145 prostate = tested on: DU-145 prostate
MDA-MB-468 breast = tested on: MDA-MB-468 breast
CCRF-CEM leukemia = tested on: CCRF-CEM leukemia
ACHN renal = tested on: ACHN renal
M14 melanoma = tested on: M14 melanoma
786-0 renal = tested on: 786-0 renal
BT-549 breast = tested on: BT-549 breast
SF-539 CNS = tested on: SF-539 CNS
NCI/ADR-RES ovarian = tested on: NCI/ADR-RES ovarian
HS 578T breast = tested on: HS 578T breast
UO-31 renal = tested on: UO-31 renal
NCI-H23 lung = tested on: NCI-H23 lung
RXF 393 renal = tested on: RXF 393 renal
SNB-75 CNS = tested on: SNB-75 CNS
KM12 colon = tested on: KM12 colon
SNB-19 CNS = tested on: SNB-19 CNS
SK-MEL-28 melanoma = tested on: SK-MEL-28 melanoma
T-47D breast = tested on: T-47D breast
TK-10 renal = tested on: TK-10 renal
MCF7 breast = tested on: MCF7 breast
PC-3 prostate = tested on: PC-3 prostate
MDA-MB-231 breast = tested on: MDA-MB-231 breast
A498 renal = tested on: A498 renal
UACC-62 melanoma = tested on: UACC-62 melanoma
HOP-62 NSCLC = tested on: HOP-62 NSCLC
SK-MEL-2 melanoma = tested on: SK-MEL-2 melanoma
NCI-H226 lung = tested on: NCI-H226 lung
LOX IMVI melanoma = tested on: LOX IMVI melanoma
SN12C renal = tested on: SN12C renal
RPMI-8226 leukemia = tested on: RPMI-8226 leukemia
MDA-MB-435 = tested on: MDA-MB-435
UACC-257 melanoma = tested on: UACC-257 melanoma

COc1cc2cc(C(=O)N3C[C@@H](CCl)c4c3cc(OC(=O)N3CCN(C(=O)CCC(=O)N5CCN(C)CC5)[C@@H]5CSSC[C@@H]53)c3ccccc43)[nH]c2c(OC)c1OC
GI50 (OVCAR-4 ovarian): 86.3 nM
TGI (OVCAR-4 ovarian): 662 nM
GI50 (HT29 colon): 57.9 nM and 142 nM
GI50 (OVCAR-8 ovarian): 42.5 nM
TGI (OVCAR-8 ovarian): 160 nM
GI50 (HCT-15 colon): 65.5 nM and 244 nM
TGI (HCT-15 colon): 1070 nM and 10500 nM
GI50 (MALME-3M melanoma): 45.9 nM and 134 nM
TGI (MALME-3M melanoma): 102 nM and 284 nM
GI50 (HOP-92 NSCLC): 95.1 nM and 178 nM
TGI (HOP-92 NSCLC): 875 nM and 752 nM
GI50 (CAKI-1 renal): 101 nM and 172 nM
TGI (CAKI-1 renal): 1470 nM and 701 nM
GI50 (SW-620 colon): 55.5 nM
TGI (SW-620 colon): 25000 nM
GI50 (NCI-H522 lung): 43.5 nM and 55.4 nM
TGI (NCI-H522 lung): 114 nM and 364 nM
GI50 (HL-60(TB) leukemia): 53 nM and 48 nM
TGI (HL-60(TB) leukemia): 1090 nM and 2390 nM
GI50 (SK-OV-3 ovarian): 72.2 nM
TGI (SK-OV-3 ovarian): 374 nM
GI50 (COLO 205 colon): 49.4 nM and 145 nM
TGI (COLO 205 colon): 133 nM and 315 nM
GI50 (SR leukemia): 6.22 nM and 19.5 nM
GI50 (OVCAR-5 ovarian): 82.8 nM
TGI (OVCAR-5 ovarian): 386 nM
GI50 (MOLT-4 leukemia): 12.4 nM and 62.8 nM
TGI (MOLT-4 leukemia): 25000 nM and 4720 nM
GI50 (EKVX NSCLC): 71.7 nM and 207 nM
TGI (EKVX NSCLC): 403 nM and 1380 nM
GI50 (HCC-2998 colon): 28.7 nM and 54.2 nM
TGI (HCC-2998 colon): 68.5 nM and 188 nM
GI50 (HCT-116 colon): 154 nM
TGI (HCT-116 colon): 11600 nM
GI50 (K-562 leukemia): 122 nM and 89.1 nM
TGI (K-562 leukemia): 25000 nM and 9070 nM
GI50 (SF-268 CNS): 58.3 nM
TGI (SF-268 CNS): 608 nM
GI50 (OVCAR-3 ovarian): 53.9 nM
TGI (OVCAR-3 ovarian): 131 nM
GI50 (DU-145 prostate): 13.6 nM and 24.5 nM
TGI (DU-145 prostate): 25000 nM and 10200 nM
GI50 (MDA-MB-468 breast): 37.3 nM
TGI (MDA-MB-468 breast): 161 nM
GI50 (CCRF-CEM leukemia): 270 nM
TGI (CCRF-CEM leukemia): > 100000 nM
GI50 (ACHN renal): 30.5 nM
TGI (ACHN renal): 93.2 nM
GI50 (M14 melanoma): 36.6 nM and 124 nM
TGI (M14 melanoma): 118 nM and 377 nM
GI50 (786-0 renal): 49 nM
TGI (786-0 renal): 135 nM
GI50 (BT-549 breast): 41 nM and 144 nM
TGI (BT-549 breast): 132 nM and 413 nM
GI50 (SF-539 CNS): 38.5 nM and 38.9 nM
TGI (SF-539 CNS): 91.3 nM and 151 nM
GI50 (NCI/ADR-RES ovarian): 64.4 nM
TGI (NCI/ADR-RES ovarian): 268 nM
GI50 (HS 578T breast): 266 nM and 292 nM
TGI (HS 578T breast): 1830 nM and 2450 nM
GI50 (UO-31 renal): 75 nM
TGI (UO-31 renal): 2840 nM
GI50 (NCI-H23 lung): 10.3 nM and 18.6 nM
TGI (NCI-H23 lung): 50.5 nM and 88.7 nM
GI50 (RXF 393 renal): 37.4 nM and 34.7 nM
TGI (RXF 393 renal): 74.8 nM and 138 nM
GI50 (SNB-75 CNS): 41.8 nM and 79.8 nM
TGI (SNB-75 CNS): 148 nM and 354 nM
GI50 (KM12 colon): 74.7 nM and 131 nM
GI50 (SNB-19 CNS): 34 nM and 90.8 nM
TGI (SNB-19 CNS): 25000 nM and 16000 nM
GI50 (SK-MEL-28 melanoma): 47.6 nM and 159 nM
TGI (SK-MEL-28 melanoma): 106 nM and 333 nM
GI50 (T-47D breast): 118 nM and 229 nM
TGI (T-47D breast): 25000 nM and 19700 nM
GI50 (TK-10 renal): 663 nM and 1050 nM
TGI (TK-10 renal): 25000 nM and 22200 nM
GI50 (MCF7 breast): 14.9 nM
TGI (MCF7 breast): 1590 nM
GI50 (PC-3 prostate): 57.7 nM and 479 nM
TGI (PC-3 prostate): 25000 nM and 10500 nM
GI50 (MDA-MB-231 breast): 64 nM and 204 nM
TGI (MDA-MB-231 breast): 160 nM and 536 nM
GI50 (A498 renal): 122 nM and 218 nM
TGI (A498 renal): 1400 nM and 471 nM
GI50 (UACC-62 melanoma): 43.6 nM and 136 nM
TGI (UACC-62 melanoma): 158 nM and 324 nM
GI50 (HOP-62 NSCLC): 41.3 nM
TGI (HOP-62 NSCLC): 231 nM
GI50 (SK-MEL-2 melanoma): 47.1 nM and 42.8 nM
TGI (SK-MEL-2 melanoma): 93.5 nM and 131 nM
GI50 (NCI-H226 lung): 453 nM and 245 nM
TGI (NCI-H226 lung): 1670 nM and 3180 nM
GI50 (LOX IMVI melanoma): 37.6 nM and 69.2 nM
TGI (LOX IMVI melanoma): 114 nM and 276 nM
GI50 (SN12C renal): 32.8 nM
TGI (SN12C renal): 7040 nM
GI50 (RPMI-8226 leukemia): 64.6 nM and 142 nM
TGI (RPMI-8226 leukemia): 2720 nM and 13200 nM
GI50 (MDA-MB-435): 46.6 nM and 147 nM
TGI (MDA-MB-435): 102 nM and 298 nM
GI50 (UACC-257 melanoma): 131 nM and 273 nM
TGI (UACC-257 melanoma): 711 nM and 1430 nM
